One assay concerns the target T1, ETB (Rattus norvegicus, UniProt P21451).
T1 sequence (P21451 27-442): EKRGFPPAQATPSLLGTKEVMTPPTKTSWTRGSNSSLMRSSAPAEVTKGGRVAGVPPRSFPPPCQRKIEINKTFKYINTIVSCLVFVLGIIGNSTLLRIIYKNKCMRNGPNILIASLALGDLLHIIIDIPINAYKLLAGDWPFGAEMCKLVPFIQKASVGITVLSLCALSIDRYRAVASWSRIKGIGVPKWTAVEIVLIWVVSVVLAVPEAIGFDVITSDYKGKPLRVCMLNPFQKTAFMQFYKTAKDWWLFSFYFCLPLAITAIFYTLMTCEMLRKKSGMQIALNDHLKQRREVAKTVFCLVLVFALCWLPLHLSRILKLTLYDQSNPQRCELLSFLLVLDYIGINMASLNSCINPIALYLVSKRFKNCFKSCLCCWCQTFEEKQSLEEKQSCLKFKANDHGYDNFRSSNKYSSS
To be noted: read-out: ERBA-B IC50; [125I]-ET-1, rat cerebellar membranes.

The next assay concerns the target T2, ETA (Oryctolagus cuniculus, UniProt A5A8K3).
T2 sequence (A5A8K3 21-427): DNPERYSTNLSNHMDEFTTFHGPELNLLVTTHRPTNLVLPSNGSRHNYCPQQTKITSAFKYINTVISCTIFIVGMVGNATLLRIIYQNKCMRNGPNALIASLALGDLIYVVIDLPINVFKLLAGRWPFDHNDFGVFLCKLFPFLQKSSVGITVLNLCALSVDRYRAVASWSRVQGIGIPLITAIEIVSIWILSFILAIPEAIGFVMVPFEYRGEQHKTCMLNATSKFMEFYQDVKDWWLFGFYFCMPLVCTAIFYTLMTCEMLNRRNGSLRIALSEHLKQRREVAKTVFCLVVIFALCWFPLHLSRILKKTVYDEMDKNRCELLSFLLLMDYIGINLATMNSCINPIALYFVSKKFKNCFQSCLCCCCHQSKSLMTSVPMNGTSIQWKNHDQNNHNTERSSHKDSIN

In another assay the target is T3, human ETB receptor (Homo sapiens, UniProt P24530).
T3 construct: expressed in transfected cells; host or cells: CHO-K1 cells, pRc-CMW (so in the source) expression vector, electroporation; membranes used
T3 sequence (P24530 27-442): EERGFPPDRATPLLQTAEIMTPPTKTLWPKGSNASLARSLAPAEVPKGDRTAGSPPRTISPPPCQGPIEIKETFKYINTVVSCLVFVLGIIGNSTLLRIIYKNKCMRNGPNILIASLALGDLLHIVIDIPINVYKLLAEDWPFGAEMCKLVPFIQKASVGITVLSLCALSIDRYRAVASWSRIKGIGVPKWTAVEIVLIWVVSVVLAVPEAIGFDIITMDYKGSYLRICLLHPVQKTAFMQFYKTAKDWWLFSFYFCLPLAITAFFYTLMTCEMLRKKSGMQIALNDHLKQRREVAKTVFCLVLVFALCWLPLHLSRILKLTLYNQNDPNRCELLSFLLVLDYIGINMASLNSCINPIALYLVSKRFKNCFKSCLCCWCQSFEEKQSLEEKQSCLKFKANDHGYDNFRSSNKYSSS
Put plainly: ERBA-B: [125I]-ET-1 binding, recombinant human ETB receptor expressed in CHO-K1 cells. Conditions: human cloned ETB receptor, read-out: ERBA-B IC50, human cloned receptor data.

Where [1] appears, read: ERBA-A IC50, [125I]-ET-1, rabbit renal artery vascular smooth muscle cells.

Here are results for 23 molecules from patent US5691373A, “Nonpeptide endothelin antagonists I” (Warner-Lambert Company, priority 1995, dated 1997).

Each structure is given as a SMILES string. pIC50: −log10 of the molar value. Where a name gives a salt, the structure may show the parent alone. Read-outs that look alike come from different tables or passages of the source.

Method for ETA: The cells used were rabbit renal artery vascular smooth muscle cells grown in a 48-well dish (1 cm^2) (confluent cells).
The growth media was Dulbecco's Modified Eagles/Ham's F12 which contained 10% fetal bovine serum and antibiotics (penicillin/streptomycin/fungizone).
Second, remove the assay buffers, place the dish on ice, and add 150 μL of cold assay buffer described above to each well. […] Next, place dish in a 37° C., water bath for about 2 hours and gently agitate the dish every 15 minutes. Discard the radioactive incubation mixture in the sink and wash wells 3 times with 1 mL of cold phosphate buffered saline.

By pIC50 is commonly meant the negative decadic logarithm of the IC50, by convention in mol/L. As for `COc1ccc(C2(O)OC(=O)C(c3ccc4c(c3)OCO4)=C2Cc2ccc(Cl)cc2)cc1` (stereo not drawn) [Example 81, 3-Benzo[1,3]dioxol-5-yl-4-(4-chlorobenzyl)-5-hydroxy-5-(4-methoxophenyl)-5H -furan-2-one], the pIC50 on ETB is 6.14.
On to `O=C1OC(O)(c2ccc3c(c2)OCO3)C(Cc2ccccc2)=C1c1ccc2c(c1)OCO2` (stereo not drawn) [Example 245, 3,5-Bis-benzo[1,3]dioxol-5-yl-4-benzyl-5-hydroxy-5H-furan-2-one], for which the results for the pIC50 against ETA (setting [1]) and at human ETB receptor were 6.96 and 5.70, respectively.
On to `COc1cc(OC)cc(C2=C(Cc3ccc(OC(C)C)c(C)c3)C(O)(c3ccc(OC)c(C)c3)OC2=O)c1` (stereo not drawn) [Example 396, 3-(3,5-Dimethoxy-phenyl)-5-hydroxy-4-(4-isopropoxy-3-methyl-benzyl)-5-(4-methoxy-3-methyl-phenyl)-5H-furan-2-one], for which the pIC50 is 7.33 against ETA (setting [1]) and 5.92 at human ETB receptor.
For the molecule `COc1ccc(C2(O)OC(=O)C(c3ccc4c(c3)OCO4)=C2CC2CCCC(C(=O)O)C2)cc1` (stereo not drawn) [Example 403, 3-[4-Benzo[1,3]dioxol-5-yl-2-hydroxy-2-(4-methoxyphenyl)-5-oxo-2,5-dihydro-furan-3-ylmethyl]-cyclohexanecarboxylic acid], the pIC50 against ETA (setting [1]) was 6.60; on human ETB receptor it was 5.52.
For `COc1ccc(C2(O)OC(=O)C(c3ccc4c(c3)OCO4)=C2Cc2cncc3ccccc23)cc1` (racemic) [Example 164, monohydrochloride] the same measures were 7.30 and 5.40.
Consider `COc1ccc(C2(O)OC(=O)C(c3ccc4c(c3)OCO4)=C2Cc2cncc3ccccc23)cc1` (stereo not drawn) [Example 161, 3-Benzo[1,3]dioxol-5-yl-5-hydroxy-4-isoquinolin-4-ylmethyl-5-(4-methoxyphenyl)-5H-furan-2-one], for which the results for the pIC50 at ETA (setting [1]) and on human ETB receptor were 7.40 and 5.49, respectively.
For `COc1ccc(C2(O)OC(=O)C(c3ccc4c(c3)OCO4)=C2Cc2ccc3c(c2)OCO3)cc1` (stereo not drawn) [Example 87, 3-Benzo[1,3]dioxol-5-yl-4-benzo[1,3]dioxol-5-ylmethyl-5-hydroxy-5-(4-methoxyphenyl)-5H-furan-2-one] the same measures were 7.20 and 5.82.
For `COc1ccc(C2(O)OC(=O)C(c3ccc4c(c3)OCO4)=C2Cc2ccc(OC)c(OC)c2)cc1` (stereo not drawn) [Example 304, 3-Benzo[1,3]dioxol-5-yl-4-(3,4-dimethoxy-benzyl)-5-hydroxy-5-(4-methoxy-phenyl)-5H-furan-2-one] the same measures were 8.32 and 6.02.
For `CCCCCCCCOc1ccc(CC2=C(c3ccc4c(c3)OCO4)C(=O)OC2(O)c2ccc(OC)c(C)c2)cc1OC` (stereo not drawn) [Example 394, 3-Benzo[1,3]dioxol-5-yl-5-hydroxy-5-(4-methoxy-3-methyl-phenyl)-4-(3-methoxy-4-octyloxy-benzyl)-5H-furan-2-one] the same measures were 7.17 and 6.38.
As for `COc1ccc(C2(O)OC(=O)C(c3ccc4c(c3)OCO4)=C2CCC2CCCCC2)cc1` (stereo not drawn) [Example 322, 3-Benzo-[1,3]dioxol-5-yl-4-(2-cyclohexyl-ethyl)-5-hydroxy-5-(4-methoxy-phenyl)-5H-furan-2-one], the pIC50 was 5.48 against ETA (setting [1]) and 5.40 on human ETB receptor.
For `COc1ccc(C(=O)/C(Cc2ccc(OC(C)C)cc2)=C(\C(=O)O)c2ccc3c(c2)OCO3)cc1` [Example 353, Sodium 2-Benzo[1,3]dioxol-5-yl-3-(4-isopropoxy-benzyl)-4-(4-methoxy-phenyl)-4-oxo-but-2-enoate] the same measures were 8.36 and less than 6.60.
In the case of `COc1ccc(C2(O)OC(=O)C(c3ccc4c(c3)OCO4)=C2Cc2cccc(OC)c2OC)cc1` (stereo not drawn) [Example 308, 3-Benzo[1,3]dioxol-5-yl-4-(2,3-dimethoxy-benzyl)-5-hydroxy-5-(4-methoxy-phenyl)-5H-furan-2-one], the pIC50 is 7.80 at ETA (setting [1]) and 5.66 at human ETB receptor.
Take `CC(C)Oc1ccc(C2(O)OC(=O)C(c3ccc4c(c3)OCO4)=C2Cc2ccccc2)cc1` (stereo not drawn) [Example 204, 3-Benzo[1,3]dioxol-5-yl-4-benzyl-5-hydroxy-5-(4-isopropoxyphenyl)-5H-furan-2-one]: the pIC50 on ETA (setting [1]) was 5.98; at human ETB receptor it was 5.00.
For `COc1ccc(C/C(C(=O)c2ccc(OC)cc2)=C(/C(=O)O)c2ccc3c(c2)OCO3)cc1` [Example 380, Sodium2-Benzo[1,3]dioxol-5-yl-3-(4-methoxy-benzyl)-4-(4-methoxy-phenyl)-4-o xo-but-2-enoate] the same measures were 7.62 and 5.70.
For `COc1ccc(C2(O)OC(=O)C(c3ccc4c(c3)OCO4)=C2Cc2cccc(CC(=O)O)c2)cc1` (stereo not drawn) [Example 295, {3-[4-Benzo[1,3]dioxol-5-yl-2-hydroxy-2-(4-methoxyphenyl)-5-oxo-2,5-dihydro-furan-3-ylmethyl]-phenyl}-acetic acid] the same measures were 6.89 and less than 5.60.
For `COc1ccc(C2(O)OC(=O)C(c3ccc4c(c3)OCO4)=C2Cc2cc(OC)c(OC)cc2OC)cc1` (stereo not drawn) [Example 306, 3Benzo[1,3]dioxol-5-yl-5-hydroxy-5-(4-methoxy-phenyl)-4-(2,4,5-trimethoxy-benzyl)-5H-furan-2-one] the same measures were 8.70 and 6.07.
Consider `CCOC(=O)COc1cc(CC2=C(c3ccc4c(c3)OCO4)C(=O)OC2(O)c2ccc(OC)cc2)cc(OC)c1OC` (stereo not drawn) [Example 363, {5-[4-Benzo[1,3]dioxol-5-yl-2-hydroxy-2-(4-methoxyphenyl)-5-oxo-2,5-dihydro-furan-3-ylmethyl]-2,3-dimethoxy-phenoxy}-acetic acid ethyl ester], for which the pIC50 is more than 8.60 against ETA (setting [1]) and 5.96 at human ETB receptor.
For `COc1cc(OC)cc(C2=C(Cc3ccc(OC(C)C)c(OC)c3)C(O)(c3ccc(OC)c(C)c3)OC2=O)c1` (stereo not drawn) [Example 390, 3-(3,5-Dimethoxy-phenyl)-5-hydroxy-4-(4-isopropoxy-3-methoxy-benzyl)-5-(4-methoxy-3-methyl-phenyl)-5H-furan-2-one] the same measures were 8.15 and 6.09.
For `COc1ccc(C2(O)OC(=O)C(c3ccc(OC)cc3OC)=C2Cc2ccccc2)cc1` (stereo not drawn) [Example 113, 4-Benzyl-3-(2,4-dimethoxyphenyl)-5-hydroxy-5-(4-mehoxyphenyl)-5H-furan-2-one] the same measures were 6.52 and 4.60.
In the case of `COc1ccc(C(=O)/C(Cc2cc(OC)c(OC)c(OC)c2)=C(\C(=O)O)c2cc(OC)c3c(c2)OCO3)cc1` [Example 371], the results for the pIC50 against ETA (setting [1]) and at human ETB receptor were 9.41 and 6.48, respectively.
As for `COc1ccc(C2(O)OC(=O)C(c3ccc4c(c3)OCO4)=C2Cc2ccc(C(=O)NCCN3CCOCC3)cc2)cc1` (racemic) [Example 350, Benzamide, 4-[4-(1,3-benzodioxol-5-yl)-2,5-dihydro-2-hydroxy-2-(4-methoxyphenyl)-5-oxo-3-furanyl]methyl]-N-[2-(4-morpholinyl)ethyl]-, monohydrochloride, (±)-], the pIC50 was 6.54 at ETA (read-out: ERBA-A IC50, [125I]-ET-1, rabbit renal artery vascular smooth muscle cells) and less than 5.60 at human ETB receptor.
On to `CCCCCC1=C(c2ccc3c(c2)OCO3)C(=O)OC1(O)c1ccc(OC)cc1` (stereo not drawn) [Example 340, 3-Benzo[1,3]dioxol-5-yl-5-hydroxy-5-(4-methoxy-phenyl)-4-pentyl-5H-furan-2-one], for which the pIC50 is 7.16 against ETA (setting [1]) and 6.20 at human ETB receptor.
For `COc1ccc(C2(O)OC(=O)C(c3ccc4c(c3)OCO4)=C2Cc2ccc(CC(=O)O)cc2)cc1` (stereo not drawn) [Example 293, {4-[4-Benzo[1,3]dioxol-5-yl-2-hydroxyl-2-(4-methoxy-phenyl)-5-oxo-2,5-dihydro-furan-3-ylmethyl]-phenyl}-acetic acid] the same measures were less than 5.60 and less than 5.60.
